Experimental data as given in ChEMBL document CHEMBL4765299 (Eur J Med Chem, 2020).
Activity calls are given as the source filed them. The rule behind the calls is not given here.

Key:
[1] = Toxicity in ICR mouse allografted with mouse H22 cells assessed as lung morphological changes at 30 mg/kg, iv administered daily for 21 days by hematoxylin and eosin staining based microscopic analysis; assay type: organism-based; details: in vivo, 504 h, dose 30 mg/kg/day, time 21 day
[2] = against C against y against t against o against t against o against x against i against c against i against t against y against a against g against a against i against n against s against t against h against u against m against a against n against H against F against L against - against 1 against c against e against l against l against s against a against s against s against e against s against s against e against d against a against s against r against e against d against u against c against t against i against o against n against i against n against c against e against l against l against v against i against a against b against i against l against i against t against y against m against e against a against s against u against r against e against d against a against f against t against e against r against 7 against 2 against h against r against s against b against y against M against T against T against a against s against s against a against y against; assay type: ADME, tissue-based; details: Homo sapiens, HFL1
K562 [3] = test: Induction of cell cycle arrest in human K562 cells assessed as accumulation at G2/M phase at 20 nM incubated for 48 hrs by propidium iodide/RNase staining based flow cytometry (reference value: 7.7%); assay type: functional
K562 [4] = test: Induction of apoptosis in human K562 cells assessed as early apoptotic cells at 10 nM incubated for 48 hrs by AnnexinV-FITC/propidium iodide staining based flow cytometry analysis (reference value: 1.47%); assay type: functional
H22 [5] = test: Anti-tumor activity against mouse H22 cells allografted in iv dosed ICR mice assessed as reduction in tumor weight administered daily for 21 days; assay type: functional, organism-based; details: dose 15-30 mg/kg/day, time 21.0 day
K562 [6] = test: Anti-microtubule activity in human K562 cells assessed as disruption of microtubule network in cytoplasm incubated for 24 hrs by immunofluorescence assay; assay type: functional, cell-based; details: dose 5-20 nM
[7] = against A against n against t against i against p against r against o against l against i against f against e against r against a against t against i against v against e against a against c against t against i against v against i against t against y against a against g against a against i against n against s against t against h against u against m against a against n against M against D against A against - against M against B against - against 2 against 3 against 1 against c against e against l against l against s against a against s against s against e against s against s against e against d against a against s against r against e against d against u against c against t against i against o against n against i against n against c against e against l against l against v against i against a against b against i against l against i against t against y against m against e against a against s against u against r against e against d against a against f against t against e against r against 7 against 2 against h against r against s against b against y against M against T against T against a against s against s against a against y against; assay type: functional, tissue-based, Homo sapiens; details: mda-mb-231
H22 [8] = test: Anti-tumor activity against mouse H22 cells allografted in ICR mice assessed as reduction in tumor weight at 30 mg/kg, iv administered daily for 21 days; assay type: functional; details: 504 h, time 21 day
K562 [9] = test: Induction of apoptosis in human K562 cells incubated for 48 hrs by AnnexinV-FITC/propidium iodide staining based flow cytometry; assay type: functional, cell-based; details: dose 5-20 nM
HUVEC [10] = test: Inhibition of cell migration in HUVEC assessed as decrease in wound closure after 24 hrs by scratch wound healing assay; assay type: functional, cell-based; details: Homo sapiens, dose 5-20 nM
K562 [11] = test: Induction of cell cycle arrest in human K562 cells assessed as accumulation at G1 phase at 20 nM incubated for 48 hrs by propidium iodide/RNase staining based flow cytometry (reference value: 38.83%); assay type: functional
HUVEC [12] = test: Anti-angiogenesis activity in HUVEC assessed as inhibition of capillary-like tube formation incubated for 6 hrs by Matrigel-based optical microscopy; assay type: functional, cell-based; details: Homo sapiens, dose 5-20 nM
K562 [13] = test: Induction of mitochondrial membrane potential depolarization in human K562 cells assessed proportion of cells with intact MMP at 20 nM measured after 48 hrs by JC-1 staining based flow cytometry (reference value: 98.12%); assay type: functional
K562 [14] = test: Induction of mitochondrial membrane potential depolarization in human K562 cells measured after 48 hrs by JC-1 staining based flow cytometry; assay type: functional, cell-based; details: dose 5-20 nM
K562 [15] = test: Induction of cell cycle arrest in human K562 cells assessed as accumulation at G2/M phase at 10 nM incubated for 48 hrs by propidium iodide/RNase staining based flow cytometry (reference value: 7.7%); assay type: functional
[16] = against A against n against t against i against p against r against o against l against i against f against e against r against a against t against i against v against e against a against c against t against i against v against i against t against y against a against g against a against i against n against s against t against h against u against m against a against n against K against 5 against 6 against 2 against c against e against l against l against s against a against s against s against e against s against s against e against d against a against s against r against e against d against u against c against t against i against o against n against i against n against c against e against l against l against v against i against a against b against i against l against i against t against y against m against e against a against s against u against r against e against d against a against f against t against e against r against 7 against 2 against h against r against s against b against y against M against T against T against a against s against s against a against y against; assay type: functional, tissue-based, Homo sapiens; details: k562
K562 [17] = test: Induction of cell cycle arrest in human K562 cells assessed as accumulation at G1 phase at 5 nM incubated for 48 hrs by propidium iodide/RNase staining based flow cytometry (reference value: 38.83%); assay type: functional
[18] = Toxicity in ICR mouse allografted with mouse H22 cells assessed as liver morphological changes at 30 mg/kg, iv administered daily for 21 days by hematoxylin and eosin staining based microscopic analysis; assay type: organism-based; details: in vivo, 504 h, dose 30 mg/kg/day, time 21 day
K562 [19] = test: Induction of cell cycle arrest in human K562 cells assessed as accumulation at G2/M phase at 5 nM incubated for 48 hrs by propidium iodide/RNase staining based flow cytometry (reference value: 7.7%); assay type: functional
K562 [20] = test: Induction of mitochondrial membrane potential depolarization in human K562 cells assessed proportion of cells with collapsed MMP at 5 nM measured after 48 hrs by JC-1 staining based flow cytometry (reference value: 1.57%); assay type: functional
Sus scrofa = species on record: Sus scrofa; test: Displacement of [3H]colchicine from porcine brain tubulin at 1 uM incubated for 2 hrs by TopCount scintillation counting method relative to control; assay type: tissue-based
HUVEC [21] = test: Anti-angiogenesis activity in HUVEC assessed as inhibition of capillary-like tube formation at 20 nM incubated for 6 hrs by Matrigel-based optical microscopy; assay type: functional, cell-based; details: Homo sapiens
K562 [22] = test: Induction of apoptosis in human K562 cells assessed as late apoptotic cells at 5 nM incubated for 48 hrs by AnnexinV-FITC/propidium iodide staining based flow cytometry analysis (reference value: 1.78%); assay type: functional
K562 [23] = test: Induction of mitochondrial membrane potential depolarization in human K562 cells assessed proportion of cells with collapsed MMP at 20 nM measured after 48 hrs by JC-1 staining based flow cytometry (reference value: 1.57%); assay type: functional
HUVEC [24] = test: Inhibition of cell migration in HUVEC assessed as wound closure at 5 nM after 24 hrs by scratch wound healing assay (reference value: 76.3%); assay type: functional, Homo sapiens; design: scale not given: the % may be the effect or the level left
H22 [25] = test: Anti-tumor activity against mouse H22 cells allografted in ICR mice assessed as reduction in tumor weight at 15 mg/kg, iv administered daily for 21 days; assay type: functional; details: 504 h, time 21 day
HUVEC [26] = test: Anti-angiogenesis activity in HUVEC assessed as inhibition of capillary-like tube formation at 5 nM incubated for 6 hrs by Matrigel-based optical microscopy; assay type: functional, cell-based; details: Homo sapiens
[27] = against A against n against t against i against p against r against o against l against i against f against e against r against a against t against i against v against e against a against c against t against i against v against i against t against y against a against g against a against i against n against s against t against h against u against m against a against n against H against C against T against - against 8 against c against e against l against l against s against a against s against s against e against s against s against e against d against a against s against r against e against d against u against c against t against i against o against n against i against n against c against e against l against l against v against i against a against b against i against l against i against t against y against m against e against a against s against u against r against e against d against a against f against t against e against r against 7 against 2 against h against r against s against b against y against M against T against T against a against s against s against a against y against; assay type: functional, tissue-based, Homo sapiens; details: hct-8

Question: For `C=C(c1cc(Cl)nc(NC)c1)c1ccc(OC)c(O)c1`, which Activity [1] is on record?
Answer: Non-Toxic

Question: What about the IC50 [2] of the same compound?
Answer: 118 nM

Question: And the Activity (K562 [3])?
Answer: 15.28%

Question: And the Activity (K562 [4])?
Answer: 37.25%

Question: And the Activity (H22 [5])?
Answer: Dose-dependent effect

Question: What about the Activity (K562 [6]) of the same compound?
Answer: Dose-dependent effect

Question: And the IC50 [7]?
Answer: 20 nM

Question: And the inhibition in vivo at 30 mg/kg/day (H22 [8])?
Answer: 68.7%

Question: And the Activity (K562 [9])?
Answer: Dose-dependent effect

Question: What about the inhibition (HUVEC [10]) of the same compound?
Answer: Dose-dependent effect

Question: What about the Activity (K562 [11]) of the same compound?
Answer: 36.65%

Question: And the Activity (HUVEC [12])?
Answer: Dose-dependent effect

Question: What about the Activity (K562 [13]) of the same compound?
Answer: 61.55%

Question: And the Activity (K562 [14])?
Answer: Dose-dependent effect

Question: What about the Activity (K562 [15]) of the same compound?
Answer: 11.54%

Question: And the IC50 [16]?
Answer: 10 nM

Question: And the Activity (K562 [17])?
Answer: 39.94%

Question: And the Activity [18]?
Answer: Non-Toxic

Question: And the Activity (K562 [19])?
Answer: 9.4%

Question: And the Activity (K562 [20])?
Answer: 13.44%

Question: And the inhibition (Sus scrofa)?
Answer: 66.5%

Question: And the Activity (HUVEC [21])?
Answer: Active

Question: And the Activity (K562 [22])?
Answer: 3.86%

Question: What about the Activity (K562 [23]) of the same compound?
Answer: 38.84%

Question: What about the Activity (HUVEC [24]) of the same compound?
Answer: 67.6%

Question: What about the inhibition in vivo at 15 mg/kg/day (H22 [25]) of the same compound?
Answer: 58.7%

Question: And the Activity (HUVEC [26])?
Answer: Active

Question: What about the IC50 [27] of the same compound?
Answer: 21 nM
